How the values were obtained:
[1] = tested on: sorbitol level in the sciatic nerves; test: Study in vivo: reduction of sorbitol accumulation in sciatic nerves of streptozotocin-diabetic rats; conditions: 10 mg/kg/d oral, 4, 30 and 52 h after streptozotocin (60 mg/kg i.v.); sciatic nerve sorbitol 18 h after last dose; diabetic male Wistar rats
Method: 2) Study in Vivo: Reduction of Sorbitol Accumulation
200 to 250 g male Wistar rats are made diabetic by intravenous injection of streptozotocin (60 mg/kg). They then receive an oral treatment of the test products, in the form of a suspension, 4 hours, 30 hours and 52 hours after the injection of streptozotocin. Eighteen hours after the last oral treatment, the rats are stunned and decapitated and then their sciatic nerves are removed. After extraction, the sorbitol level in the nerves is measured according to the enzymatic method described by H. U. BERGMEYER (Methods of enzymatic analysis. H. U. BERGMEYER ed., Academic Press New York 3, p. 1323, 1974).
The percentage protection is calculated for each product relative to the batch of diabetic animals taking into account the sorbitol level in the sciatic nerves of nondiabetic rats.

aldose reductase = target: T1, aldose reductase (Rattus norvegicus, UniProt P07943); test: Study in vitro: inhibition of aldose reductase; format: biochemical; conditions: enzyme from male Wistar rat crystalline lenses; L-glyceraldehyde, NADPH disappearance at 340 nm
T1 construct: The aldose reductase used is obtained from male Wistar rat crystalline lenses; from tissue; host or cells: male Wistar rat crystalline lenses
Method: 1) Study in Vitro: Inhibition of Aldose Reductase
The aldose reductase used is obtained from male Wistar rat crystalline lenses according to a modification of the method of S. HAYMAN et al. (Journal of Biological Chemistry 240, p., 877, 1965). The enzymatic extract is diluted in a phosphate buffer in the presence of NADPH and various concentrations of the test products. The reaction is initiated, with L-glyceraldehyde and the reaction rate is measured by monitoring the disappearance of NADPH by spectrophotometry at 340 nm. The reaction rate is calculated for each product concentration and then the concentration necessary for a 50% reduction in the reaction rate (IC50) is evaluated by linear interpolation.

Row | Structure (SMILES) | melting point | Protection against increase in sorbitol after administration 10 mg/kg/d (%) [1] | IC50 (aldose reductase)
1 | N#Cc1ccccc1C(=O)C[N+](=O)[O-] | 147 to 149 °C |  | 
2 | CCc1ccccc1C(=O)C[N+](=O)[O-] | 62 to 63 °C |  | 
3 | O=C(C[N+](=O)[O-])c1ccccc1C(F)(F)F | 55 to 57 °C |  | 
4 | CCOc1ccccc1C(=O)C[N+](=O)[O-] | 145 to 148 °C |  | 
5 | CC(C)Oc1ccccc1C(=O)C[N+](=O)[O-] | 78 to 80 °C |  | 
6 | O=C(C[N+](=O)[O-])c1ccccc1OC(F)(F)F [Example 1, Nitromethyl 2-Trifluoromethoxyphenyl Ketone] |  | 70% | 41 nM
7 | CCCCCC(=O)Nc1ccc(C(=O)C[N+](=O)[O-])c(Cl)c1 [Example 20, N-[3-chloro-4-nitromethylcarbonylphenyl]hexaneamide] | 60 to 63 °C |  | 
8 | CC(C(=O)Nc1ccc(C(=O)C[N+](=O)[O-])c(Cl)c1)c1ccccc1 (stereo not drawn) [Example 23, N-[3-Chloro-4-nitromethylcarbonylphenyl]-2-phenylpropaneamide] | 136 to 137 °C | 40% | 7 nM
9 | O=C(Cc1ccccc1)Nc1ccc(C(=O)C[N+](=O)[O-])c(Cl)c1 [Example 24, N-[3-Chloro-4-nitromethylcarbonylphenyl]phenylacetamide] | 121 to 124 °C | 45% | 7 nM
10 | O=C(Cc1ccccc1Cl)Nc1ccc(C(=O)C[N+](=O)[O-])c(Cl)c1 [Example 28, 2-Chloro-N-[3-chloro-4-nitromethylcarbonylphenyl]phenylacetamide] |  | 58% | 7 nM
11 | O=C(Cc1ccccc1C(F)(F)F)Nc1ccc(C(=O)C[N+](=O)[O-])c(Cl)c1 [Example 30, N-[3-Chloro-4-nitromethylcarbonylphenyl]-2-trifluoromethylphenylacetamide] | 160 to 162 °C | 61% | 7 nM
12 | CC(=O)Nc1cccc(C(=O)C[N+](=O)[O-])c1Cl [Example 34, N-[2-Chloro-3-nitromethylcarbonylphenyl]acetamide] | 140 to 142 °C |  | 
13 | O=C(C[N+](=O)[O-])c1cc(NS(=O)(=O)c2ccccc2)ccc1Cl [Example 38, N-[4-Chloro-3-nitromethylcarbonylphenyl]benzenesulfonamide] | 152 to 154 °C |  | 
14 | Cc1ccccc1CC(=O)Nc1ccc(C(=O)C[N+](=O)[O-])c(Cl)c1 [Example 43, N-[3-Chloro-4-nitromethylcarbonylphenyl]-2-methylphenylacetamide] |  | 70% | 7 nM
15 | Cc1ccccc1CC(=O)Nc1ccc(C(=O)C[N+](=O)[O-])c(C)c1 [Example 59, N-[3-Methyl-4-nitromethylcarbonylphenyl]-2-methylphenylacetamide] |  | 52% | 6 nM
16 | Cc1ccccc1CC(=O)Nc1ccc(C(=O)C[N+](=O)[O-])cc1Br [Example 60, N-[2-Bromo-4-nitromethylcarbonylphenyl]-2-methylphenylacetamide] | 125 to 127 °C |  | 
17 | O=C(C[N+](=O)[O-])c1ccc(Sc2ccccc2)cc1Cl [Example 64, Nitromethyl 2-Chloro-4-phenylthiophenyl Ketone] | 77 to 78 °C |  | 

Reference: patent publication US6559185B2, “Nitromethyl ketone compounds having aldose reduction inhibiting properties and methods for their use” (Merck Patent GmbH, priority 1997, dated 2003)
